Data: PubChem BioAssay (NCI)
Several values for one entry are separate records, joined by “and”; a condition that tells them apart may be missing. Equal values may be shown once.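 Each compound was tested at five concentrations against cells in 96-well plates for 48 hours. GI50: concentration for 50% inhibition of growth. TGI: total growth inhibition.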 Where a SMILES comes first, the peptide text is derived from it. Bridges are numbered along the chain shown (N, C = ends). The star is where a group is joined. Cbz = O=C(OCc1ccccc1)*

What was measured:
Experiment in all cases: inhibition of tumour cell growth, NCI panel, 48 h
EKVX NSCLC = system: EKVX NSCLC
CAKI-1 renal = system: CAKI-1 renal
TK-10 renal = system: TK-10 renal
A549 NSCLC = system: A549 NSCLC
DU-145 prostate = system: DU-145 prostate
SK-MEL-28 melanoma = system: SK-MEL-28 melanoma
NCI-H522 lung = system: NCI-H522 lung
SF-268 CNS = system: SF-268 CNS
K-562 leukemia = system: K-562 leukemia
HOP-92 NSCLC = system: HOP-92 NSCLC

Structure (SMILES)	TGI (EKVX NSCLC)	TGI (CAKI-1 renal)	TGI (TK-10 renal)	TGI (A549 NSCLC)	TGI (DU-145 prostate)	TGI (SK-MEL-28 melanoma)	TGI (NCI-H522 lung)	TGI (SF-268 CNS)	TGI (K-562 leukemia)	TGI (HOP-92 NSCLC)	GI50 (A549 NSCLC)	GI50 (DU-145 prostate)	GI50 (HOP-92 NSCLC)
Cc1cc(O)ccc1C1(c2ccc(F)cc2)OC(=O)c2ccccc21 (stereo not drawn)	12.6 µM	15.3 µM	15.5 µM	18.3 µM	16.1 µM	25.8 µM	15.6 µM	39.7 µM	> 72.9 µM	12.5 µM			
COc1ccc2c(-c3ccc(OCCN(C)C)cc3)c(Oc3ccc(Cl)cc3)c(=O)oc2c1	26.2 µM	31 µM	26.4 µM	18.7 µM	32.7 µM	3.57 µM	12.1 µM	32.9 µM	4.95 µM	32.5 µM			
Nc1ccc(-c2nc3ccc(F)cc3s2)cc1	> 100 µM	95.5 µM	78.8 µM	> 100 µM	98.6 µM	> 100 µM	> 100 µM	> 100 µM	> 100 µM	> 100 µM			
CNC(=S)N/N=C(\C)c1nc2ncccc2[nH]1	> 100 µM	99.1 µM	> 96.1 µM	> 100 µM	> 100 µM	> 100 µM	> 73.3 µM	> 100 µM	> 100 µM	> 100 µM			
CCOC(=O)c1c(N2CCOCC2)[nH]c(=O)c(C(c2cccs2)c2c(O)c(C(=O)OCC)c(N3CCOCC3)[nH]c2=O)c1O	> 100 µM	> 100 µM	> 100 µM	> 100 µM	> 100 µM	> 100 µM	> 100 µM	> 100 µM	> 100 µM	> 100 µM			
O=C(O)c1cc(Cl)cc2c1NC1(N2)C(=O)Nc2ccccc21 (stereo not drawn)	> 100 µM	> 100 µM	> 100 µM	> 100 µM	> 100 µM	> 100 µM	> 100 µM	> 100 µM	> 100 µM	> 100 µM			
Oc1nc(N/N=C/c2ccccc2)[nH]c1/C=C1\C=Nc2ccccc21	> 100 µM	> 100 µM	> 100 µM	> 100 µM	> 100 µM	> 100 µM	> 100 µM	> 100 µM	> 100 µM	> 100 µM			
COC(=O)C1CCCCNC(=O)CCC(NC(=O)OCc2ccccc2)C(=O)N1 (stereo not drawn) (Cbz-Glu-Lys-OMe; lactam 1-2; configuration not given here)	> 100 µM	> 100 µM	> 100 µM	> 100 µM	> 100 µM	> 100 µM	> 100 µM	> 100 µM	> 100 µM	95.1 µM			
COc1nc(OC)nc(-c2cccc(F)c2)n1	18.6 µM	11.4 µM	33.1 µM	52.6 µM	26.8 µM	39.6 µM	42.4 µM	32 µM	53.7 µM	38.8 µM			
Clc1nc(Nc2nc3ccccc3[nH]2)nc(Cl)c1Cc1ccccc1	> 100 µM	> 100 µM	> 100 µM	> 100 µM	> 100 µM	> 100 µM	> 100 µM	> 100 µM	> 100 µM	70.9 µM			
COc1cc2c(cc1C)NC(=O)/C2=C\c1ccncc1	25.8 µM	16.5 µM	21.4 µM	66.5 µM	53.6 µM	84.3 µM	9.53 µM	56.9 µM	> 100 µM	> 100 µM			
Cc1ccc(SC[C@@]2(C(F)F)NC(=O)NC2=O)cc1	> 100 µM	> 100 µM	> 100 µM	> 100 µM	> 100 µM	> 100 µM	> 100 µM	> 100 µM	> 100 µM	> 100 µM			
Cc1ccc(N=C2SC(c3ccc(C)cc3)(c3ccc(C)cc3)c3ccccc32)cc1	> 100 µM	> 100 µM	> 100 µM	> 100 µM	> 100 µM	> 100 µM	> 100 µM	> 100 µM	> 100 µM	> 100 µM			
COc1cc(OC)c2c(O)c(S(=O)(=O)c3ccc(C)cc3)c(=O)oc2c1	> 100 µM	> 100 µM	> 100 µM	> 100 µM	> 100 µM	> 100 µM	> 100 µM	> 100 µM	> 100 µM	> 100 µM			
CN(C)Cc1cc(C(=O)/C=C/c2cccc(Cl)c2)cc(CN(C)C)c1O	25.4 µM	4.3 µM	22 µM	28.8 µM	19.2 µM	17.1 µM	33 µM	24.1 µM	11.4 µM	18.2 µM			
CC(NNC(=O)c1ccncc1)c1ccc(Cl)c(Cl)c1 (stereo not drawn)	> 100 µM	> 100 µM	> 100 µM	> 100 µM	> 100 µM	> 100 µM	> 100 µM	> 100 µM	> 100 µM	> 100 µM			

Structure (SMILES)	TGI (EKVX NSCLC)	TGI (CAKI-1 renal)	TGI (TK-10 renal)	TGI (A549 NSCLC)	TGI (DU-145 prostate)	TGI (SK-MEL-28 melanoma)	TGI (NCI-H522 lung)	TGI (SF-268 CNS)	TGI (K-562 leukemia)	TGI (HOP-92 NSCLC)	GI50 (A549 NSCLC)	GI50 (DU-145 prostate)	GI50 (HOP-92 NSCLC)
CSc1nc(C#N)c(N)n1C	> 100 µM	> 100 µM	> 100 µM	> 100 µM	> 100 µM	> 100 µM	> 100 µM	> 100 µM	> 100 µM	> 100 µM			
CC(C)C(C/C=C1/CC(CO)(COC(=O)C2CCCCC2)OC1=O)C(C)C (stereo not drawn)	42.8 µM	37.8 µM	37.4 µM	26.4 µM	28.8 µM	35.1 µM	34.1 µM	33.8 µM	> 100 µM	29.8 µM			
COC(=O)/C(=C\c1ccco1)P(=O)(OC)OC	> 100 µM	65 µM	> 100 µM	> 100 µM	> 100 µM	> 100 µM	5.52 µM	> 100 µM	> 100 µM	91.9 µM			
CCOP(=O)(OCC)C1(O)CC(n2cc(C)c(=O)[nH]c2=O)OC1CO (stereo not drawn)	> 100 µM	> 100 µM	> 100 µM	> 100 µM	> 100 µM	> 100 µM	> 100 µM	> 100 µM	> 100 µM	> 100 µM			
COC1=CC(=O)c2c(O)c3c(c(O)c2C1=O)C[C@](C)(O)C[C@@H]3O	23.6 µM	45.5 µM	64.3 µM	9.81 µM	16 µM	18.4 µM	12.4 µM	32.8 µM	19.4 µM	22.6 µM			
CCOC(=O)C(NC(=O)CC)(Nc1ccc(S(=O)(=O)Nc2nc(C)cc(C)n2)cc1)C(F)(F)F (stereo not drawn)	> 100 µM	> 100 µM	> 100 µM	> 100 µM	> 100 µM	> 100 µM	> 100 µM	> 100 µM	> 100 µM	> 100 µM			
COc1ccc(/C(=N/Nc2nc3ccccc3[nH]2)C(=O)O)cc1	> 100 µM	> 100 µM	> 100 µM	> 100 µM	> 100 µM	> 100 µM	> 100 µM	> 100 µM	> 100 µM	> 100 µM			
Cn1c2c(c3ccccc31)CCN1C(=O)C3SC21C1C(=O)N(c2ccccc2)C(=O)C31 (stereo not drawn)	> 100 µM	> 100 µM	> 79.1 µM	> 100 µM	> 100 µM	> 100 µM	> 100 µM	> 100 µM	> 100 µM	> 86.7 µM			
C=CC(C)(C)c1cc([C@@H]2COc3cc(O)ccc3C2=O)c(O)c(O)c1OC	99.4 µM	27.4 µM	> 100 µM	> 100 µM	46.2 µM	67.2 µM	38.1 µM	37.4 µM	> 100 µM	49.4 µM			
ONC1=Nc2ccccc2OCc2cc(Br)c(Br)cc2COc2ccccc2N=C1NO	47.2 µM	29.3 µM	> 59.6 µM	> 54 µM	29.3 µM	> 57.5 µM	41.9 µM	> 57.4 µM	> 44.6 µM	32 µM			
COc1ccc2c(c1)CC1Cc3ccccc3CCN1C2 (stereo not drawn)	> 100 µM	59.1 µM	> 100 µM	> 100 µM	> 100 µM	> 100 µM	63.6 µM	> 100 µM	> 100 µM	> 100 µM			
Cc1ccc(OCC2OC(n3cnc4c(Cl)ncnc43)CC2Oc2ccc(C)cc2)cc1 (stereo not drawn)	7.18 µM and 10.2 µM	4.18 µM and 5.78 µM	> 100 µM	15.9 µM and 37 µM	3.65 µM and 28.1 µM	14.9 µM	6.66 µM and 3.82 µM	21.8 µM and 26.9 µM	> 23.9 µM and 61.8 µM	24.2 µM and 5.57 µM	7.37 µM and 18.9 µM	1.96 µM and 13.3 µM	5.22 µM and 2.22 µM
CCN1CCCC(Nc2cc(C)nc(/N=C(/N)Nc3ccc(Cl)c(Cl)c3)n2)C1 (stereo not drawn)	11.4 µM	3.1 µM	3.22 µM	4.22 µM	15.3 µM	3.34 µM	2.61 µM	5.63 µM	0.558 µM	3.33 µM			
CSCCCNC(=O)c1csc(-c2csc(CCNC(=O)CNC(=O)CNC(=O)CNC(=O)OC(C)(C)C)n2)n1	> 100 µM	> 100 µM	> 100 µM	> 100 µM	> 100 µM	> 100 µM	> 100 µM	> 100 µM	> 100 µM	> 100 µM			
COc1cc(/C=C2\Cc3cc(OC)c(OC)cc3C2=O)cc(OC)c1	> 100 µM	> 100 µM	> 100 µM	> 100 µM	> 100 µM	> 100 µM	> 100 µM	> 100 µM	> 100 µM	> 57.5 µM			
